According to patent US20140072557A1, “MEDICINAL AGENT FOR SUPPRESSING MALIGNANT TUMOR METASTASIS” (priority 2011, published 2014):

Legend:
[1] = system: A549 cells; assay: Intracellular cGMP level in A549 cells on natriuretic peptide stimulus; type: cell-based; settings: 1×10^−11 M to 1×10^−6 M, 10 minutes
Procedure: The A549 cells were cultured in a 24-well dish at 4×10^4 cells/well, and the culture medium was replaced with DMEM culture medium free from FCS the next day. To the culture medium, solutions of hANP, hBNP, and hCNP (final concentration: ten-fold serial dilution from 1×10^−11 M to 1×10^−6 M, the same amount of physiological saline was used as a control) were separately added. After 10 minutes passed, 400 μL of cooled 70% ethanol (containing 0.1 N hydrochloric acid) was added, and ultrasonication was performed for a short time. The treated solution was lyophilized, and the cGMP level was measured using Cyclic GMP Assay kit (made by Yamasa Corp.).

[2] = system: A549 cells; assay: EMT induced by TGF-β1 in A549 cells (morphology, quantitative RT-PCR); type: cell-based; settings: 1 μM hANP, TGF-β1 stimulus
Procedure: Using a 6-well dish, the A549 cells were cultured at 1×10^5 cells/well, and the culture medium was replaced with DMEM culture medium free from FBS the next day. After 24 hours of culture, the cells were used in the following experiment.
An ANP group (ANP solution was added (final concentration: 1 μM)) and a control group (the same amount of physiological saline was added) were prepared, and after 2 hours from the addition, TGF-β1 was added so that the final concentration would be 0.125, 0.25, 0.5, 1.0, and 2.0 ng/mL. After 24 hours had passed, the morphological change in the cells was observed under a microscope and photographed (FIG. 3).
Then, total RNA was collected using TRIZOL total RNA isolation reagent (made by Invitrogen), cDNA was synthesized using reverse transcriptase, and the mRNA levels of E-cadherin, N-cadherin, VEGF-A, PDGF-B, TNF-α, and IL-6 were measured by quantitative RT-PCR. It is known that in EMT, the expression of E-cadherin decreases while the expression of N-cadherin increases. The expression ratio of N-cadherin/E-cadherin is considered to be useful as an indicator of the degree of EMT.

[3] = system: HUVEC; assay: VE-cadherin expression and intercellular adhesion of confluent HUVEC with VEGF; type: cell-based, human; settings: VEGF+hANP
Procedure: Normal human umbilical cord vein endothelial cells (HUVEC) were purchased from Takara Bio, Inc. Medium preparation and subculture were performed according to the package insert. Nuclear staining was performed using TOPRO3 (purchased from Invitrogen), and immunostaining of VE-cadherin was performed using anti-VE-cadherin antibody (purchased from BD Biosciences). p After culturing the HUVEC to confluent and replacing the medium with a serum free medium, nuclear staining and immunostaining using anti-VE-cadherin antibody were performed in the presence or absence of VEGF and hANP to observe the expression of VE-cadherin.

Question: With `CC[C@H](C)[C@@H]1NC(=O)[C@H](CCCNC(=N)N)NC(=O)[C@H](CC(=O)O)NC(=O)[C@H](CCSC)NC(=O)[C@H](CCCNC(=N)N)NC(=O)CNC(=O)CNC(=O)[C@H](Cc2ccccc2)NC(=O)[C@@H](NC(=O)[C@H](CO)NC(=O)[C@H](CO)NC(=O)[C@H](CCCNC(=N)N)NC(=O)[C@H](CCCNC(=N)N)NC(=O)[C@H](CC(C)C)NC(=O)[C@@H](N)CO)CSSC[C@@H](C(=O)N[C@@H](CC(N)=O)C(=O)N[C@@H](CO)C(=O)N[C@@H](Cc2ccccc2)C(=O)N[C@@H](CCCNC(=N)N)C(=O)N[C@@H](Cc2ccc(O)cc2)C(=O)O)NC(=O)CNC(=O)[C@H](CC(C)C)NC(=O)CNC(=O)[C@H](CO)NC(=O)[C@H](CCC(N)=O)NC(=O)[C@H](C)NC(=O)CNC1=O` [hANP, carperitide] as the compound, how does the “intracellular cGMP level” value [1] read?
Answer: increased the intracellular cGMP level of the A549 cells in a concentration-dependent manner

Question: What about the “expression of E-cadherin under TGF-β1 stimulus” value [2] of the same compound?
Answer: inhibited decrease

Question: And the “expression of N-cadherin induced by TGF-β1” value [2]?
Answer: significantly suppressed increase

Question: What about the “expression ratio of N-cadherin/E-cadherin” value [2] of the same compound?
Answer: significantly decreased

Question: And the “gene expression of IL-6 (mRNA level)” value [2]?
Answer: significantly suppressed

Question: What about the “gene expression of PDGF-B (mRNA level)” value [2] of the same compound?
Answer: significantly suppressed

Question: What about the “gene expression of TNF-α (mRNA level)” value [2] of the same compound?
Answer: significantly suppressed

Question: And the “gene expression of VEGF-A (mRNA level)” value [2]?
Answer: significantly suppressed

Question: And the “morphological change associated with EMT induced by TGF-β1” value ([2]; 24 hours)?
Answer: significantly suppressed

Question: And the “decrease of VE-cadherin expression and intercellular gaps caused by VEGF” value [3]?
Answer: this phenomenon was suppressed
